Measurements: ChEMBL document CHEMBL1201862, “PubChem BioAssay data set” (2004)
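Dose response: 5 concentrations. Exposure: 48 h. Format: 96-well plates. Endpoint: linear interpolation; highest concentration if not reached. GI50: concentration for 50% inhibition of growth.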 Active and inactive are the calls of the source. Rule as the data show it: active = GI50 up to about 1.1 µM and inactive = higher.

What was measured:
Experiment in all cases: NCI tumour cell line growth inhibition, 48 h
OVCAR-5 = tested on: OVCAR-5
NCI/ADR-RES = tested on: NCI/ADR-RES
EKVX = tested on: EKVX
UACC-257 = tested on: UACC-257
OVCAR-8 = tested on: OVCAR-8
RXF 393 = tested on: RXF 393
KM12 = tested on: KM12
HOP-62 = tested on: HOP-62
SW-620 = tested on: SW-620
IGROV-1 = tested on: IGROV-1
A549 = tested on: A549
TK-10 = tested on: TK-10
SK-MEL-5 = tested on: SK-MEL-5
U-251 = tested on: U-251
Malme-3M = tested on: Malme-3M
NCI-H460 = tested on: NCI-H460
SNB-19 = tested on: SNB-19
SF-268 = tested on: SF-268
HCT-116 = tested on: HCT-116
SN12C = tested on: SN12C

Measured: GI50

CCOC(=O)c1csc(NC(=O)C(C)N2CCCCC2)n1 (stereo not drawn)
inactive: OVCAR-5 > 100 µM | NCI/ADR-RES > 100 µM | EKVX > 100 µM | UACC-257 > 100 µM | OVCAR-8 > 100 µM | RXF 393 > 100 µM | KM12 > 100 µM | HOP-62 > 100 µM | SW-620 > 100 µM | IGROV-1 > 100 µM | A549 > 100 µM | TK-10 > 100 µM | SK-MEL-5 > 100 µM | U-251 > 100 µM | Malme-3M > 100 µM | NCI-H460 > 100 µM | SNB-19 > 100 µM

OCC1OC(n2cnc3c2NC=NC[C@H]3O)C(O)C1O (stereo partly drawn)
inactive: OVCAR-5 > 450 µM | SF-268 > 384 µM | NCI/ADR-RES > 436 µM | EKVX > 450 µM | UACC-257 > 450 µM | OVCAR-8 > 450 µM | RXF 393 238 µM | KM12 > 450 µM | HOP-62 > 337 µM | HCT-116 260 µM | SN12C 293 µM | SW-620 317 µM | IGROV-1 > 450 µM | A549 396 µM | SK-MEL-5 > 71.3 µM | U-251 > 450 µM | Malme-3M > 355 µM | NCI-H460 164 µM | SNB-19 > 450 µM

CC(C)c1oc(=O)cc2c1C(O)C1OC(=O)C3(C)C(O)C4OC4C2(C)C13 (stereo not drawn) [NAGILACTONE]
active: HCT-116 1.09 µM | SK-MEL-5 0.628 µM | NCI-H460 0.733 µM | SNB-19 0.573 µM
inactive: OVCAR-5 9.48 µM | SF-268 4.09 µM | NCI/ADR-RES 12.9 µM | EKVX 2.19 µM | UACC-257 1.83 µM | OVCAR-8 1.75 µM | RXF 393 1.62 µM | KM12 1.72 µM | HOP-62 2.15 µM | SN12C 1.31 µM | SW-620 1.45 µM | IGROV-1 2.75 µM | A549 2.44 µM | U-251 1.58 µM | Malme-3M 1.69 µM

NCC(=O)N[C@H]1c2ccsc2/C(=N/O)[C@H]1O
inactive: OVCAR-5 > 100 µM | NCI/ADR-RES > 100 µM | EKVX > 100 µM | UACC-257 > 100 µM | OVCAR-8 > 100 µM | RXF 393 > 100 µM | HOP-62 > 100 µM | HCT-116 > 100 µM | SN12C > 100 µM | SW-620 > 100 µM | IGROV-1 > 100 µM | A549 > 100 µM | TK-10 > 100 µM | SK-MEL-5 > 100 µM | U-251 > 100 µM | Malme-3M > 100 µM | NCI-H460 > 100 µM

O=C(O)C(Cc1cccs1)NC(=O)C(F)(F)F (stereo not drawn)
inactive: OVCAR-5 > 100 µM | SF-268 > 100 µM | NCI/ADR-RES > 100 µM | EKVX > 100 µM | UACC-257 > 100 µM | OVCAR-8 > 100 µM | RXF 393 > 100 µM | KM12 > 100 µM | HOP-62 > 100 µM | HCT-116 > 100 µM | SN12C > 100 µM | SW-620 > 100 µM | IGROV-1 > 100 µM | A549 > 100 µM | SK-MEL-5 > 100 µM | U-251 > 100 µM | Malme-3M > 100 µM | NCI-H460 > 100 µM | SNB-19 > 100 µM

CCC(=O)OCN(C)c1nc(N(C)COC(=O)CC)nc(N(C)COC(=O)CC)n1
inactive: OVCAR-5 > 100 µM | NCI/ADR-RES 32.4 µM | UACC-257 38.9 µM | OVCAR-8 69.3 µM | RXF 393 10.9 µM | KM12 34.5 µM | HOP-62 > 100 µM | HCT-116 22.9 µM | SN12C 39.8 µM | SW-620 26.9 µM | IGROV-1 > 100 µM | TK-10 > 100 µM | SK-MEL-5 22.9 µM | U-251 > 100 µM | Malme-3M 32.6 µM | NCI-H460 33.4 µM | SNB-19 > 100 µM
